This passage reports IC50 results from US20260078120A1, “SUBSTITUTED PYRIDOPYRIMIDINONES” (MIRATI THERAPEUTICS, INC., priority 2022, published 2026).

In assay [1] the test system is T47D (PI3Kα H1047R mutant) cells. The experiment in a line: CellTiter-Glo 2.0 luminescent cell viability assay, 72 hours, T47D cells. It is filed as cell-based. Conditions: T47D (PI3Kα H1047R mutant) cells, CellTiter-Glo, approximately 72 hours, read-out: T47D (H1047R mutant) Viability IC50. In short, it runs like this:
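Viability was measured by CellTiter-Glo 2.0 luminescence after approximately 72 h of compound exposure at 37° C. Plating was 1000 cells per well the day before dosing, with ten 1:4 dilutions from a 10 µM top concentration. Values as percent of vehicle were fitted by variable-slope log(inhibitor) regression to give IC50.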

For assay [2], the system named is SKBR3 (PI3Kα wild type) cells. The experiment in a line: CellTiter-Glo 2.0 luminescent cell viability assay, 72 hours, SKBR3 cells. It is filed as cell-based. The note with it: SKBR3 (PI3Kα wild type) cells, CellTiter-Glo, approximately 72 hours, read-out: SKBR3 (WT) Viability IC50. In short, it runs like this:
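Viability measured via CTG luminescence following roughly 72 hours of compound exposure at 37° C. Dosing used a 10 um starting concentration diluted 1:4 over 10 points; percent-of-vehicle data fitted with a variable-slope four-parameter model for IC50.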

Like-named read-outs stand apart in the source and are kept apart here. Bounds are passed on as bounds.

For `Cc1cc([C@@H](C)Nc2ccccc2C(=O)O)c2nc(N3CCN(C4COC4)CC3)c(C#N)c(=O)n2c1` [Example 11-152, (R)-2-((1-(3-cyano-7-methyl-2-(4-(oxetan-3-yl)piperazin-1-yl)-4-oxo-4H-pyrido[1,2-a]pyrimidin-9-yl)ethyl)amino)benzoic acid], the IC50 is 4.34 µM in assay [1] (Homo sapiens, T47D, 72 h) and > 10 µM in assay [2] (Homo sapiens, SK-BR-3, 72 h).

As for `Cc1cc(C(C)Nc2ccccc2C(=O)O)c2nc(-c3ccc(F)cc3)cc(=O)n2c1` (stereo not shown) [Example 11-391, 2-((1-(2-(4-fluorophenyl)-7-methyl-4-oxo-4H-pyrido[1,2-a]pyrimidin-9-yl)ethyl)amino)benzoic acid], the IC50 in assay [1] (Homo sapiens, T47D, 72 h) is 9.62 µM; in assay [2] (Homo sapiens, SK-BR-3, 72 h) it was > 10 µM.

Take `Cc1cc(C(C)Nc2ccccc2C(=O)O)c2nc(SC3CCOC3)cc(=O)n2c1` (stereo not shown) [Example 11-370, 2-((1-(7-methyl-4-oxo-2-((tetrahydrofuran-3-yl)thio)-4H-pyrido[1,2-a]pyrimidin-9-yl)ethyl)amino)benzoic acid]: the IC50 in assay [1] (Homo sapiens, T47D, 72 h) is > 10 µM; in assay [2] (Homo sapiens, SK-BR-3, 72 h), > 10 µM.

`Cc1cc(C(C)Nc2ccccc2C(=O)O)c2nc(C3=CCNCC3)cc(=O)n2c1` (stereo not shown) [Example 11-378, 2-((1-(7-methyl-4-oxo-2-(1,2,3,6-tetrahydropyridin-4-yl)-4H-pyrido[1,2-a]pyrimidin-9-yl)ethyl)amino)benzoic acid]: the IC50 in assay [1] (Homo sapiens, T47D, 72 h) was > 10 µM; in assay [2] (Homo sapiens, SK-BR-3, 72 h), > 10 µM.

With `Cc1cc([C@@H](C)Nc2ccccc2C(=O)O)c2nc(N3CCC4(CC3)CC4(F)F)c(C)c(=O)n2c1` [Example 11-219, (R)-2-((1-(2-(1,1-difluoro-6-azaspiro[2.5]octan-6-yl)-3,7-dimethyl-4-oxo-4H-pyrido[1,2-a]pyrimidin-9-yl)ethyl)amino)benzoic acid], the IC50 in assay [1] (Homo sapiens, T47D, 72 h) was 0.495 µM; in assay [2] (Homo sapiens, SK-BR-3, 72 h), > 10 µM.

`Cc1cc(CNc2ccccc2C(=O)O)c2nc(N3CCCCC3)cc(=O)n2c1` [Example 11-412]: the IC50 in assay [1] (Homo sapiens, T47D, 72 h) was > 10 µM; in assay [2] (Homo sapiens, SK-BR-3, 72 h) it was > 10 µM.

For `Cc1cc([C@@H](C)Nc2ccccc2C(=O)O)c2nc(NCC3CC(F)(F)C3)c(C)c(=O)n2c1` [Example 11-199, (R)-2-((1-(2-(((3,3-difluorocyclobutyl)methyl)amino)-3,7-dimethyl-4-oxo-4H-pyrido[1,2-a]pyrimidin-9-yl)ethyl)amino)benzoic acid], the IC50 was 0.498 µM in assay [1] (Homo sapiens, T47D, 72 h) and > 10 µM in assay [2] (Homo sapiens, SK-BR-3, 72 h).

With `Cc1cc([C@@H](C)Nc2ccccc2C(=O)O)c2nc(N3CCC(C(C)(C)C)n4nccc43)c(C)c(=O)n2c1` (stereo partly drawn) [Example 11-13, 2-(((1R)-1-(2-(7-(tert-butyl)-6,7-dihydropyrazolo[1,5-a]pyrimidin-4(5H)-yl)-3,7-dimethyl-4-oxo-4H-pyrido[1,2-a]pyrimidin-9-yl)ethyl)amino)benzoic acid], the half-maximal inhibitory concentration (IC50) in assay [1] (Homo sapiens, T47D, 72 h) was 0.324 µM; in assay [2] (Homo sapiens, SK-BR-3, 72 h), > 10 µM.

Take `Cc1cc([C@@H](C)Nc2ccccc2C(=O)O)c2nc(N3CCNCC3)c(C#N)c(=O)n2c1` [Example 11-296, (R)-2-((1-(3-cyano-7-methyl-4-oxo-2-(piperazin-1-yl)-4H-pyrido[1,2-a]pyrimidin-9-yl)ethyl)amino)benzoic acid]: the IC50 in assay [1] (Homo sapiens, T47D, 72 h) is > 10 µM; in assay [2] (Homo sapiens, SK-BR-3, 72 h), > 10 µM.

Regarding `Cc1cc([C@@H](C)Nc2ccccc2C(=O)O)c2nc(N3Cc4nc(C)sc4C3)c(C)c(=O)n2c1` [Example 11-15, (R)-2-((1-(3,7-dimethyl-2-(2-methyl-4,6-dihydro-5H-pyrrolo[3,4-d]thiazol-5-yl)-4-oxo-4H-pyrido[1,2-a]pyrimidin-9-yl)ethyl)amino)benzoic acid], the IC50 was 0.156 µM in assay [1] (Homo sapiens, T47D, 72 h) and > 10 µM in assay [2] (Homo sapiens, SK-BR-3, 72 h).

`Cc1cc([C@@H](C)Nc2ccccc2C(=O)O)c2nc(N3CCn4c(nnc4C(F)(F)F)C3)c(C)c(=O)n2c1` [Example 11-217, (R)-2-((1-(3,7-dimethyl-4-oxo-2-(3-(trifluoromethyl)-5,6-dihydro-[1,2,4]triazolo[4,3-a]pyrazin-7(8H)-yl)-4H-pyrido[1,2-a]pyrimidin-9-yl)ethyl)amino)benzoic acid]: the concentration for half-maximal inhibition (IC50) in assay [1] (Homo sapiens, T47D, 72 h) is > 10 µM; in assay [2] (Homo sapiens, SK-BR-3, 72 h), > 10 µM.

Turning to `Cc1cc([C@@H](C)Nc2ccccc2C(=O)O)c2nc(N3CCC4(CCOC4)C3)c(C)c(=O)n2c1` (stereo partly drawn) [Example 10-138, 2-(((1R)-1-(3,7-dimethyl-4-oxo-2-(2-oxa-7-azaspiro[4.4]nonan-7-yl)-4H-pyrido[1,2-a]pyrimidin-9-yl)ethyl)amino)benzoic acid], the IC50 in assay [1] (Homo sapiens, T47D, 72 h) was 0.0716 µM; in assay [2] (Homo sapiens, SK-BR-3, 72 h) it was > 10 µM.

Regarding `Cc1cc([C@@H](C)Nc2ccccc2C(=O)O)c2nc(N[C@H](C3CC3)C(F)(F)F)c(C#N)c(=O)n2c1` [Example 11-160, 2-(((R)-1-(3-cyano-2-(((R)-1-cyclopropyl-2,2,2-trifluoroethyl)amino)-7-methyl-4-oxo-4H-pyrido[1,2-a]pyrimidin-9-yl)ethyl)amino)benzoic acid], the IC50 in assay [1] (Homo sapiens, T47D, 72 h) was 0.657 µM; in assay [2] (Homo sapiens, SK-BR-3, 72 h) it was > 10 µM.

Regarding `Cc1cc(C(C)Nc2ccccc2C(=O)O)c2nc(C3CCN(C)C(=O)C3)cc(=O)n2c1` (stereo not shown) [Example 11-377, 2-((1-(7-methyl-2-(1-methyl-2-oxopiperidin-4-yl)-4-oxo-4H-pyrido[1,2-a]pyrimidin-9-yl)ethyl)amino)benzoic acid], the IC50 in assay [1] (Homo sapiens, T47D, 72 h) was 3.63 µM; in assay [2] (Homo sapiens, SK-BR-3, 72 h), > 10 µM.

On to `Cc1cc(C(C)Nc2ccc(Cl)nc2C(=O)O)c2nc(N3Cc4ccccc4C3)c(C)c(=O)n2c1` (stereo not shown) [Example 11-361], for which the IC50 in assay [1] (Homo sapiens, T47D, 72 h) turned out to be 0.277 µM; in assay [2] (Homo sapiens, SK-BR-3, 72 h) it was 8.79 µM.

Take `Cc1cc([C@@H](C)Nc2ccccc2C(=O)O)c2nc(N3CC(F)(F)C3)c(C)c(=O)n2c1` [Example 11-115, (R)-2-((1-(2-(3,3-difluoroazetidin-1-yl)-3,7-dimethyl-4-oxo-4H-pyrido[1,2-a]pyrimidin-9-yl)ethyl)amino)benzoic acid]: the IC50 is 0.379 µM in assay [1] (Homo sapiens, T47D, 72 h) and > 10 µM in assay [2] (Homo sapiens, SK-BR-3, 72 h).

With `Cc1cc([C@@H](C)Nc2ccccc2C(=O)O)c2nc(N3CCC(c4ccccn4)C3)c(C)c(=O)n2c1` (stereo partly drawn) [Example 10-142, 2-(((1R)-1-(3,7-dimethyl-4-oxo-2-(3-(pyridin-2-yl)pyrrolidin-1-yl)-4H-pyrido[1,2-a]pyrimidin-9-yl)ethyl)amino)benzoic acid], the IC50 in assay [1] (Homo sapiens, T47D, 72 h) is 0.0801 µM; in assay [2] (Homo sapiens, SK-BR-3, 72 h), > 10 µM.

Turning to `Cc1cc([C@@H](C)Nc2ccccc2C(=O)O)c2nc(N3CC4(CCC4(F)F)C3)c(C)c(=O)n2c1` [Example 11-201, (R)-2-((1-(2-(5,5-difluoro-2-azaspiro[3.3]heptan-2-yl)-3,7-dimethyl-4-oxo-4H-pyrido[1,2-a]pyrimidin-9-yl)ethyl)amino)benzoic acid], the IC50 was 0.117 µM in assay [1] (Homo sapiens, T47D, 72 h) and > 10 µM in assay [2] (Homo sapiens, SK-BR-3, 72 h).

With `Cc1cc([C@@H](C)Nc2ccc(Cl)nc2C(=O)O)c2nc(NCC3CC3)c(C#N)c(=O)n2c1` [Example 11-206, (R)-6-chloro-3-((1-(3-cyano-2-((cyclopropylmethyl)amino)-7-methyl-4-oxo-4H-pyrido[1,2-a]pyrimidin-9-yl)ethyl)amino)picolinic acid], the IC50 was 0.132 µM in assay [1] (Homo sapiens, T47D, 72 h) and > 10 µM in assay [2] (Homo sapiens, SK-BR-3, 72 h).

On to `Cc1cc([C@@H](C)Nc2ccccc2C(=O)O)c2nc(N3CCC(F)(F)[C@H]3C)c(C)c(=O)n2c1` [Example 11-123, 2-(((R)-1-(2-((R)-3,3-difluoro-2-methylpyrrolidin-1-yl)-3,7-dimethyl-4-oxo-4H-pyrido[1,2-a]pyrimidin-9-yl)ethyl)amino)benzoic acid], for which the IC50 is 0.285 µM in assay [1] (Homo sapiens, T47D, 72 h) and > 10 µM in assay [2] (Homo sapiens, SK-BR-3, 72 h).

`Cc1cc([C@@H](C)Nc2ccccc2C(=O)O)c2nc(N3CCC4(CCO4)C3)c(C#N)c(=O)n2c1` (stereo partly drawn) [Example 11-285, 2-(((1R)-1-(3-cyano-7-methyl-4-oxo-2-(1-oxa-6-azaspiro[3.4]octan-6-yl)-4H-pyrido[1,2-a]pyrimidin-9-yl)ethyl)amino)benzoic acid]: the IC50 in assay [1] (Homo sapiens, T47D, 72 h) is > 10 µM; in assay [2] (Homo sapiens, SK-BR-3, 72 h), > 10 µM.

Consider `Cc1cc([C@@H](C)Nc2ccc(F)nc2C(=O)O)c2nc(N3CCC(F)(F)CC3)c(C)c(=O)n2c1` [Example 11-45, (R)-3-((1-(2-(4,4-difluoropiperidin-1-yl)-3,7-dimethyl-4-oxo-4H-pyrido[1,2-a]pyrimidin-9-yl)ethyl)amino)-6-fluoropicolinic acid], for which the IC50 is 2.97 µM in assay [1] and > 10 µM in assay [2].

On to `Cc1cc([C@@H](C)Nc2ccccc2C(=O)O)c2nc(N3CCN(c4ccc(C(F)(F)F)cc4C#N)C[C@H]3C)c(C#N)c(=O)n2c1` [Example 11-76, 2-(((R)-1-(3-cyano-2-((R)-4-(2-cyano-4-(trifluoromethyl)phenyl)-2-methylpiperazin-1-yl)-7-methyl-4-oxo-4H-pyrido[1,2-a]pyrimidin-9-yl)ethyl)amino)benzoic acid], for which the IC50 in assay [1] (Homo sapiens, T47D, 72 h) is 0.34 µM; in assay [2] (Homo sapiens, SK-BR-3, 72 h), > 10 µM.
